Test system: HEK293 NOD2/MDP-stimulated NF-kB reporter inhibition
Test: PubChem AID 2334

`O=C(Nc1nc2c(F)cc(F)cc2s1)c1ccc([N+](=O)[O-])o1` gave an IC50 of 15.6 µM.
